In patent US8802597B2, “Herbicidal pyrimidines” (E I du Pont de Nemours and Company, priority 2003, dated 2014):

What was measured:
Assay type in all cases: in vivo
[1] = tested on: wheat (Triticum aestivum); assay: Test B pre/postemergence
How it was run: (§1)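 Under greenhouse conditions, seeded pots and young plants (1- to 4-leaf, 2 to 18 cm) were treated at the same time with test chemicals in a non-phytotoxic solvent mixture containing surfactant. Response was assessed visually after 13 to 15 days, from 0 (no effect) to 100 (complete control).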

[2] = tested on: Surinam grass (Brachiaria decumbens); assay: Test B pre/postemergence
How it was run: as §1

[3] = tested on: morningglory (Ipomoea coccinea); assay: Test B pre/postemergence
How it was run: as §1

[4] = tested on: barnyardgrass (Echinochloa crus-galli); assay: Test B pre/postemergence
How it was run: as §1

corn (Zea mays) = assay: Test B pre/postemergence
How it was run: as §1

[5] = tested on: lambsquarters (Chenopodium album); assay: Test B pre/postemergence
How it was run: as §1

[6] = tested on: giant foxtail (Setaria faberii); assay: Test B pre/postemergence
How it was run: as §1

[7] = tested on: crabgrass (Digitaria sanguinalis); assay: Test B pre/postemergence
How it was run: as §1

[8] = tested on: pigweed (Amaranthus retroflexus); assay: Test B pre/postemergence
How it was run: as §1

[9] = tested on: velvetleaf (Abutilon theophrasti); assay: Test B pre/postemergence
How it was run: as §1

[10] = tested on: cocklebur (Xanthium strumarium); assay: Test B pre/postemergence
How it was run: as §1

wild oat (Avena fatua) = assay: Test B postemergence
How it was run: as §1

[11] = tested on: blackgrass (Alopecurus myosuroides); assay: Test B postemergence
How it was run: as §1

rice (Oryza sativa) = assay: Test B flooded paddy test; settings: Flood, 1000 g ai/ha; scale 0 to 100
How it was run: (§2)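 Visual injury scoring (0 = no effect, 100 = complete control) versus controls made 13 to 15 days after treatment in the greenhouse. Test species were grown in flooded paddy to the 2-leaf stage: rice, barnyardgrass, umbrella sedge, duck salad.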

[12] = tested on: barnyardgrass (Echinochloa crus-galli); assay: Test B flooded paddy test; settings: Flood, 1000 g ai/ha; scale 0 (no effect) to 100 (complete control)
How it was run: as §2

[13] = tested on: umbrella sedge (Cyperus difformis); assay: Test B flooded paddy test; settings: Flood, 1000 g ai/ha; scale 0 to 100
How it was run: as §2

[14] = tested on: duck salad (Heteranthera limosa); assay: Test B flooded paddy test; settings: Flood, 1000 g ai/ha; scale 0 to 100
How it was run: as §2

[15] = Postemergence, 125 g ai/ha, scale 0 to 100 (0 no effect, 100 complete control)
[16] = Postemergence, 500 g ai/ha, scale 0 to 100
[17] = Preemergence, 125 g ai/ha, scale 0 to 100 (0 no effect, 100 complete control)
[18] = Preemergence, 500 g ai/ha, scale 0 to 100 (0 no effect, 100 complete control)
[19] = 125 g ai/ha, scale 0 to 100 (0 no effect, 100 complete control)

CCCOC(=O)c1nc(C2CC2)nc(N)c1Br [Compound 15]
Wheat plant response rating [1, 15]: 40
Plant response rating, Wheat [1, 16]: 70
Plant response rating, Wheat [1, 17]: 40
Wheat plant response rating [1, 18]: 60
Surinam Grass plant response rating [2, 15]: 60
Plant response rating, Surinam Grass [2, 16]: 90
Plant response rating, Surinam Grass [2, 17]: 30
Surinam Grass plant response rating [2, 18]: 90
Morningglory plant response rating [3, 15]: 100
Plant response rating, Morningglory [3, 16]: 100
Plant response rating, Morningglory [3, 17]: 70
Morningglory plant response rating [3, 18]: 100
Barnyardgrass plant response rating [4, 15]: 90
Plant response rating, Barnyardgrass [4, 16]: 90
Plant response rating, Barnyardgrass [4, 17]: 40
Barnyardgrass plant response rating [4, 18]: 90
Corn plant response rating (corn (Zea mays); [15]): 50
Plant response rating, Corn (corn (Zea mays); [16]): 80
Plant response rating, Corn (corn (Zea mays); [17]): 20
Corn plant response rating (corn (Zea mays); [18]): 80
Lambsquarters plant response rating [5, 15]: 100
Plant response rating, Lambsquarters [5, 16]: 100
Plant response rating, Lambsquarters [5, 17]: 90
Lambsquarters plant response rating [5, 18]: 100
Foxtail, Giant plant response rating [6, 15]: 40
Plant response rating, Foxtail, Giant [6, 16]: 70
Plant response rating, Foxtail, Giant [6, 17]: 40
Foxtail, Giant plant response rating [6, 18]: 80
Crabgrass plant response rating [7, 15]: 30
Plant response rating, Crabgrass [7, 16]: 60
Plant response rating, Crabgrass [7, 17]: 70
Crabgrass plant response rating [7, 18]: 90
Pigweed plant response rating [8, 15]: 80
Plant response rating, Pigweed [8, 16]: 100
Plant response rating, Pigweed [8, 17]: 90
Pigweed plant response rating [8, 18]: 100
Velvetleaf plant response rating [9, 15]: 80
Plant response rating, Velvetleaf [9, 16]: 90
Plant response rating, Velvetleaf [9, 17]: 70
Velvetleaf plant response rating [9, 18]: 100
Cocklebur plant response rating [10, 15]: 100
Plant response rating, Cocklebur [10, 16]: 100
Plant response rating, Cocklebur [10, 17]: 70
Cocklebur plant response rating [10, 18]: 100
Oat, Wild plant response rating (wild oat (Avena fatua); [19]): 10
Plant response rating, Oat, Wild (wild oat (Avena fatua); 500 g ai/ha, scale 0 to 100): 70
Blackgrass plant response rating [11, 19]: 70
Plant response rating, Blackgrass ([11]; 500 g ai/ha, scale 0 to 100): 80
Plant response rating, Rice (rice (Oryza sativa)): 70
Plant response rating, Barnyardgrass [12]: 90
Plant response rating, Sedge, Umbrella [13]: 70
Plant response rating, Ducksalad [14]: 80
